Values joined by “and” are separate entries in the source; they are usually repeats but may differ in a detail not shown here. Equal entries are not always repeated. Each block holds one molecule with its values, some of them ahead of it.
Tests used:
human V-1 receptor = target: T1, human V-1 receptor (Homo sapiens, UniProt P37288); assay: In vitro recombinant vasopressin receptor binding assay (V1 Bdg), displacement of 3H-arginine vasopressin; conditions: for V1 Bdg % inh: 1 uM; for inhibition at 0.1 µM: read-out: V1 Bdg (% inh, 0.1 uM)
T1 construct: expressed in transfected cells; host or cells: HEK-293
T1 sequence (P37288 whole entry): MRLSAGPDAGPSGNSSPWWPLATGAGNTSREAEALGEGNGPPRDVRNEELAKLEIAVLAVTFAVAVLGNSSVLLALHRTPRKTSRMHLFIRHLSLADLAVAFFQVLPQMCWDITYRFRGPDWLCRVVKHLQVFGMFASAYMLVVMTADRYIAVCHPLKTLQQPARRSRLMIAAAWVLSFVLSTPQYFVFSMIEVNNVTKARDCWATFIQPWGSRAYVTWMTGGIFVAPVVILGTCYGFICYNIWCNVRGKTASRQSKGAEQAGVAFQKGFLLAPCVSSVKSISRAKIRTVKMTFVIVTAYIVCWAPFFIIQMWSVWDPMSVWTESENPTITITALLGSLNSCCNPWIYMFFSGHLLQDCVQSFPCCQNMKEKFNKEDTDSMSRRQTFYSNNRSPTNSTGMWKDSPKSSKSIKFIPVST
Description: (§1) In vitro Recombinant Vasopressin Receptor Binding Assay
(§2) Compounds were assessed for their ability to displace ^3H-arginine vasopressin from the human V-1 or V-2 receptor in HEK-293 cells. Assay buffer is 50 mM Tris-Cl, 5 mM MgCl2, 0.1% BSA (pH 7.5) containing 5 ug/ml of aprotinin, leupeptin, pepstatin, 50 ug/ml bacitracin, and 1 mM Pefabloc. ^3H-vasopressin is ^3H-arginine-8-vasopressin (68.5 Ci/mmol, final concentration in assay is 0.65-0.75 nM). Into wells of 96-well round bottom polypropylene plates were added buffer, test compound, membrane (containing cloned human V-1 or V-2 receptor), and ^3H-vasopressin. The reaction plates were allowed to sit at room temperature for one hour. The samples were filtered through Unifilter GF/C plates (presoaked in 0.3 polyethyleneimine). The plates were washed 5 times with cold physiological saline containing 0.05% Tween 20. After drying, the bottom of the filter plates were sealed and 0.025 ml of Microscint-20 was added to each filter. The top of the plate was sealed, and the plate was counted. Non-specific binding was determined by the addition of 1.25 uM arginine-8-vasopressin in those wells.

V2 = V2 (Homo sapiens, UniProt P30518); assay: In vitro recombinant vasopressin receptor binding assay (V2 Bdg), displacement of 3H-arginine vasopressin; parameters: expressed in transfected cells; host or cells: HEK-293; conditions: for V2 Bdg % inh: 0.1 uM, printed in parentheses in place of IC50; for IC50: membrane with cloned human V-2 receptor (HEK-293); for inhibition at 0.1 µM: read-out: V2 Bdg % inh
Description: as §1
as §2, with “Assay buffer is 50 mM Tris-Cl, 5 mM MgCl2, 0.1% BSA (pH 7.5) containing 5 ug/ml of aprotinin, leupeptin, pepstatin, 50 ug/ml bacitracin, and 1 mM Pefabloc. ^3H-vasopressin is ^3H-arginine-8-vasopressin (68.5 Ci/mmol, final concentration in assay is 0.65-0.75 nM).” left out, “counted.” for “counted. Non-specific binding was determined by the addition of 1.25 uM arginine-8-vasopressin in those wells.”

Molecule: COc1cc(NC(=O)c2ccccc2-c2ccc(C)cc2)ccc1C(=O)N1CC2CN(C)CCN2Cc2ccccc21 (racemic) [Compound 85, (RS)-2-(4-Methyl-phenyl)-N-[3-methoxy-4-(1,3,4,12a-tetrahydro-2-methyl-6H-[1,4]pyrazino[4,3-a][1,4]-benzodiazepin-11(12H)-yl-carbonyl)phenyl]benzamide]
V1 Bdg % inh (human V-1 receptor): (19%/1 uM)
V2 Bdg % inh (V2): (54%/0.1 uM)

Molecule: O=C(Nc1ccc(C(=O)N2CC3COCCN3Cc3ccccc32)cc1)c1ccccc1-c1ccccc1 (racemic) [Compound 20, (RS)-2-Phenyl-N-[4-(1,3,4,12a-tetrahydro-6H-[1,4]oxazino[4,3-a][1,4]-benzodiazepin-11(12H)-yl-carbonyl)phenyl]benzamide]
inhibition at 0.1 µM (human V-1 receptor): 69%
IC50 (V2): 8 nM

Molecule: O=C(Nc1ccc(C(=O)N2C[C@H]3COCCN3Cc3ccccc32)c(Cl)c1)c1ccccc1-c1cccc(O)c1 [Compound 7, (S)-2-(3-Hydroxyphenyl)-N-[3-chloro-4-(1,3,4,12a-tetrahydro-6H-[1,4]oxazino[4,3-a][1,4]-benzodiazepin-11(12H)-yl-carbonyl)phenyl]benzamide]
inhibition at 0.1 µM (human V-1 receptor): 1%
IC50 (V2): 11 nM

Molecule: Cc1cccc(C)c1C(=O)Nc1ccc(C(=O)N2CC3COCCN3Cc3ccccc32)c(Cl)c1 (racemic) [Compound 10, (RS)-2,6-Dimethyl-N-[3-chloro-4-(1,3,4,12a-tetrahydro-6H-[1,4]oxazino[4,3-a][1,4]-benzodiazepin-11(12H)-yl-carbonyl)phenyl]benzamide]
inhibition at 0.1 µM (human V-1 receptor): 15%
IC50 (V2): 9 nM

Molecule: (RS)-2-(2-Fluoro-phenyl)-N-[4-(1,3,4,12a-tetrahydro-6H-[1,4]thiazino[4,3-a][1,4]-benzodiazepin-11(12H)-yl-carbonyl)phenyl]benzamide [Compound 45]
V1 Bdg (% inh, 0.1 uM) (human V-1 receptor): 15%
V2 Bdg % inh (V2): (69%/0.1 uM)

Molecule: Cc1c(I)cccc1C(=O)Nc1ccc(C(=O)N2CC3CSCCN3Cc3ccccc32)c(Cl)c1 (racemic) [Compound 44, (RS)-2-Methyl-3-iodo-N-[3-chloro-4-(1,3,4,12a-tetrahydro-6H-[1,4]thiazino[4,3-a][1,4]-benzodiazepin-11(12H)-yl-carbonyl)phenyl]benzamide]
V1 Bdg (% inh, 0.1 uM) (human V-1 receptor): 2%
V2 Bdg % inh (V2): (43%/0.1 uM)

Molecule: (RS)-2,3-Difluoro-N-[3-chloro-4-(1,3,4,12a-tetrahydro-2-methyl-6H-[1,4]pyrazino[4,3-a][1,4]-benzodiazepin-11(12H)-yl-carbonyl)phenyl]benzamide [Compound 101]
V1 Bdg % inh (human V-1 receptor): (6%/1 uM)

Molecule: Cc1csc(-c2ccccc2C(=O)Nc2ccc(C(=O)N3CC4COCCN4Cc4ccccc43)cc2)c1 (racemic) [Compound 54, (RS)-2-(4-Methyl-2-thienyl)-N-[4-(1,3,4,12a-tetrahydro-6H-[1,4]oxazino[4,3-a][1,4]-benzodiazepin-11(12H)-yl-carbonyl)phenyl]benzamide]
inhibition at 0.1 µM (V2): 57%

Molecule: CC(C)N1CCN2Cc3ccccc3N(C(=O)c3ccc(NC(=O)c4ccccc4-c4ccccc4)cc3Cl)CC2C1 (racemic) [Compound 60, (RS)-2-Phenyl-N-[3-chloro-4-(1,3,4,12a-tetrahydro-2-isopropyl-6H-[1,4]pyrazino[4,3-a][1,4]-benzodiazepin-11(12H)-yl-carbonyl)phenyl]benzamide]
V2 Bdg % inh (V2): (25%/0.1 uM)

Molecule: CN1CCN2Cc3ccccc3N(C(=O)c3ccc(NC(=O)c4ccccc4-c4ccccc4)cc3C(F)(F)F)CC2C1 (racemic) [Compound 75, (RS)-2-Phenyl-N-[3-trifluoromethyl-4-(1,3,4,12a-tetrahydro-2-methyl-6H-[1,4]pyrazino[4,3-a][1,4]-benzodiazepin-11(12H)-yl-carbonyl)phenyl]benzamide]
V2 Bdg % inh (V2): (2%/0.1 uM)

Molecule: COc1cc(C(=O)N2CC3CN(C)CCN3Cc3ccccc32)ccc1NC(=O)c1ccccc1C (racemic) [Compound 71, (RS)-2-Methyl-N-[2-methoxy-4-(1,3,4,12a-tetrahydro-2-methyl-6H-[1,4]pyrazino[4,3-a][1,4]-benzodiazepin-11(12H)-yl-carbonyl)phenyl]benzamide]
V1 Bdg % inh (human V-1 receptor): (12%/1 uM)

Molecule: COc1cccc(-c2ccccc2C(=O)Nc2ccc(C(=O)N3CC4COCCN4Cc4ccccc43)c(Cl)c2)c1 (racemic) [Compound 113, (RS)-2-(3-Methoxy-phenyl)-N-[3-chloro-4-(1,3,4,12a-tetrahydro-6H-[1,4]oxazino[4,3-a][1,4]-benzodiazepin-11(12H)-yl-carbonyl)phenyl]benzamide]
IC50 (V2): 8 nM

Molecule: Cc1ccc(-c2ccccc2C(=O)Nc2ccc(C(=O)N3CC4COCCN4Cc4ccccc43)cc2)cc1 (racemic) [Compound 12, (RS)-2-(4-Methyl-phenyl)-N-[4-(1,3,4,12a-tetrahydro-6H-[1,4]oxazino[4,3-a][1,4]-benzodiazepin-11(12H)-yl-carbonyl)phenyl]benzamide]
IC50 (V2): 6 nM

The next lines start with the values.

inhibition at 0.1 µM (human V-1 receptor): 8%
IC50 (V2): 47 nM
Molecule: CN(C)c1cc(NC(=O)c2ccccc2-c2ccccc2)ccc1C(=O)N1C[C@H]2CSCCN2Cc2ccccc21 [Compound 46, (S)-2-Phenyl-N-[3-dimethylamino-4-(1,3,4,12a-tetrahydro-6H-[1,4]thiazino[4,3-a][1,4]-benzodiazepin-11(12H)-yl-carbonyl)phenyl]benzamide]

inhibition at 0.1 µM (human V-1 receptor): 49%
Molecule: O=C(Nc1ccc(C(=O)N2C[C@H]3COCCN3Cc3ccccc32)c(Cl)c1)c1ccc(O)cc1-c1ccccc1 [Compound 6, (S)-2-Phenyl-4-hydroxy-N-[3-chloro-4-(1,3,4,12a-tetrahydro-6H-[1,4]oxazino[4,3-a][1,4]-benzodiazepin-11(12H)-yl-carbonyl)phenyl]benzamide]

IC50 (V2): 35 nM and 54 nM
inhibition at 0.1 µM (V2): 71%
Molecule: CN1CCN2Cc3ccccc3N(C(=O)c3ccc(NC(=O)c4ccccc4-c4ccccc4)cc3Cl)CC2C1 (racemic) [Compound 56, (RS)-2-Phenyl-N-[3-chloro-4-(1,3,4,12a-tetrahydro-2-methyl-6H-[1,4]pyrazino[4,3-a][1,4]-benzodiazepin-11(12H)-yl-carbonyl)phenyl]benzamide]

IC50 (V2): 11 nM
Molecule: O=C(Nc1ccc(C(=O)N2C[C@H]3CSCCN3Cc3ccccc32)c(Cl)c1)c1ccccc1-c1ccccc1 [Compound 47, (S)-2-Phenyl-N-[3-chloro-4-(1,3,4,12a-tetrahydro-6H-[1,4]thiazino[4,3-a][1,4]-benzodiazepin-11(12H)-yl-carbonyl)phenyl]benzamide]

IC50 (V2): 40 nM
Molecule: O=C(Nc1ccc(C(=O)N2CC3CSCCN3Cc3ccccc32)c(Cl)c1)c1ccccc1-c1ccsc1 (racemic) [Compound 50, (RS)-2-(3-Thienyl)-N-[3-chloro-4-(1,3,4,12a-tetrahydro-6H-[1,4]thiazino[4,3-a][1,4]-benzodiazepin-11(12H)-yl-carbonyl)phenyl]benzamide]

IC50 (V2): 9 nM
Molecule: COc1ccc(C(=O)Nc2ccc(C(=O)N3CC4COCCN4Cc4ccccc43)c(Cl)c2)c(-c2ccccc2)c1 (racemic) [Compound 115, (RS)-2-Phenyl-4-methoxy-N-[3-chloro-4-(1,3,4,12a-tetrahydro-6H-[1,4]oxazino[4,3-a][1,4]-benzodiazepin-11(12H)-yl-carbonyl)phenyl]benzamide]

IC50 (V2): 4 nM
Molecule: O=C(Nc1ccc(C(=O)N2CC3COCCN3Cc3ccccc32)c(Cl)c1)c1ccc(F)cc1-c1ccccc1 (racemic) [Compound 114, (RS)-2-Phenyl-4-fluoro-N-[3-chloro-4-(1,3,4,12a-tetrahydro-6H-[1,4]oxazino[4,3-a][1,4]-benzodiazepin-11(12H)-yl-carbonyl)phenyl]benzamide]

IC50 (V2): 21 nM
Molecule: Cc1cc(NC(=O)c2ccccc2-c2ccccc2)ccc1C(=O)N1CC2CSCCN2Cc2ccccc21 (racemic) [Compound 107, (RS)-2-Phenyl-N-[3-methyl-4-(1,3,4,12a-tetrahydro-6H-[1,4]thiazino[4,3-a][1,4]-benzodiazepin-11(12H)-yl-carbonyl)phenyl]benzamide]

IC50 (V2): 8 nM
Molecule: O=C(Nc1ccc(C(=O)N2CC3CSCCN3Cc3ccccc32)c(Cl)c1)c1ccc(F)cc1-c1ccccc1 (racemic) [Compound 105, (RS)-2-Phenyl-4-fluoro-N-[3-chloro-4-(1,3,4,12a-tetrahydro-6H-[1,4]thiazino[4,3-a][1,4]-benzodiazepin-11(12H)-yl-carbonyl)phenyl]benzamide]

IC50 (V2): 79 nM
Molecule: O=C(Nc1ccc(C(=O)N2CC3CSCCN3Cc3ccccc32)c(Cl)c1)c1cc(F)ccc1-c1ccccc1 (racemic) [Compound 104, (RS)-2-Phenyl-5-fluoro-N-[3-chloro-4-(1,3,4,12a-tetrahydro-6H-[1,4]thiazino[4,3-a][1,4]-benzodiazepin-11(12H)-yl-carbonyl)phenyl]benzamide]

Reference: US6713475B2, “Tricyclic benzodiazepines as vasopressin receptor antagonists” (Ortho-McNeil Pharmaceutical, Inc., priority 1999, dated 2004)
